According to patent US20210346665A1, “CONDUCTIVE MICRONEEDLE PATCH FOR ACTIVE AGENT DELIVERY” (Singapore Health Services Pte Ltd, priority 2018, published 2021):
Counter-ions that a name gives are not always drawn.

Test: drug loading and release from MeHA MN patches in PBS
Format: physicochemical
Protocol: The drug loading capabilities of MeHA MNs was investigated by using model drugs of different molecular weights, mainly fluorescein isothiocyanate (FITC), FITC-Dextran and doxorubicin hydrochloride (Dox). The innate ability of the MeHA MN arrays to absorb fluid is taken advantage of to load the drug molecules into the MN tips. All three drugs are dissolved in PBS which were then used to equilibrate MeHA MN patches. After 10 minutes of incubation with the drug solution, the MNs were left to dry in the fumehood (FIG. 14). The amount of drug encapsulated in the MN was determined by immersing the drug loaded MeHA in 1×PBS. By obtaining a 50 μL of the solution at various time points, the fluorescence intensity was measured to determine the drug release profile of the three different drug molecules.
Next, the release profiles of drugs from the MeHA MN patches were examined.

| released from the MN patches (MeHA MN patches, 1×PBS, within 30 minutes) [%] | Molecule | loading into the MN tips through swelling (MeHA MN, 10 minutes incubation with drug solution in PBS) |
| --- | --- | --- |
| 50 | COc1cccc2c1C(=O)c1c(O)c3c(c(O)c1C2=O)C[C@@](O)(C(=O)CO)C[C@@H]3O[C@H]1C[C@H](N)[C@H](O)[C@H](C)O1 [Dox, doxorubicin hydrochloride] | – |
| – | fluorescein isothiocyanate [FITC] | easily loaded |
